Assays:
BK B2 receptor = biological target: T1, BK B2 receptor (Homo sapiens, UniProt P30411); assay: Relative amount of PG secretion in cell supernatant by enzyme immunoassay (EIA); type: cell-based; settings: 1 h, 1 μM BK set as 100%
T1 construct: The cell strains used in the study were human primary vein endothelial cells (HPVEC) and human aortic smooth muscle cells (HASMC); endogenous in cells; host or cells: human primary vein endothelial cells (HPVEC) and human aortic smooth muscle cells (HASMC)
T1 sequence (P30411 1-391): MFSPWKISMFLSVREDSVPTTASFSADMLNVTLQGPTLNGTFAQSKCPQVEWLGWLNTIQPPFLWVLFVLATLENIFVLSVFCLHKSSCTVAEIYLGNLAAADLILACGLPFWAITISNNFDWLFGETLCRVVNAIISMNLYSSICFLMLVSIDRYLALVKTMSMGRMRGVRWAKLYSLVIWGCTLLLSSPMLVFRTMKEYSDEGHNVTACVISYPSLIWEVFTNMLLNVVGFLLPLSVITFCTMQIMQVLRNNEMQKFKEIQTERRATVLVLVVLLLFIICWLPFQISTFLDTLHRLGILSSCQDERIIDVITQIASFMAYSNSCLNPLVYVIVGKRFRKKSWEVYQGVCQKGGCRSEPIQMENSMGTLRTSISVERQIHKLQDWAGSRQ
Protocol: YLB-01, YLB-02 and YLB-03 were selected for the study as described below in Table 1, and BK was used as control. Implantation Two cell lines were transferred into T-75 cell culture flask, and then the instructions of PG kit were strictly followed when cells have reached the appropriate density. Day 1 Cells were seeded in 24 well dishes with minimum medium and allowed to adhere overnight. Day 2 Cells were starved in the serum-free conditioned medium. […] The supernatant was collected after incubation for later use. Day 4 24 well dishes were washed and then dyed for 45-90 min, and then the OD value was measured for analysis. […] In order to detect endogenous prostaglandin, enzyme immunoassay (EIA) was used to determine the amount of prostaglandin and subtypes thereof in the cell supernatant described above.

B2 receptor = biological target: T2, B2 receptor (Homo sapiens, UniProt P30411); assay: Relative PG secretion with B2 receptor inhibitor HOE-140; type: cell-based; settings: 1 μM BK set as 100%
T2 construct: The cell strains used in the study were human primary vein endothelial cells (HPVEC) and human aortic smooth muscle cells (HASMC); endogenous in cells; host or cells: human primary vein endothelial cells (HPVEC) and human aortic smooth muscle cells (HASMC)
T2 sequence (P30411 1-391): T1 sequence (P30411 1-391)
Protocol: Two different cell lines were transferred into T-75 cell culture flask, and then the instructions of PG kit were strictly followed when cells have reached the appropriate density. Day 1. Cells were seeded in 24 well dishes with minimum medium and allowed to adhere overnight. Day 2. Cells were starved in the serum-free conditioned medium. Day 3. […] Cells were incubated at 37° C. for 1 h. The supernatant was collected after incubation for later use. Day 4. 24 well dishes were washed and then dyed for 45-90 min, and then the quantitative analysis was carried out.

[1] = test system: human aortic smooth muscle cells (HASMC); assay: PG subtype secretion by EIA in HASMC; type: cell-based; settings: 10 nM, 1 μM BK set as 100%
[2] = Transdermal experiment, modified Franz diffusion pool with HPLC; type: in vitro ADME, mice
Protocol: To explore the optimized dosage form and preparation technology of BK B2 receptor agonist, we selected YLB-01, which has the long-term stability for preservation, as a sample from three agonists (YLB-01, YLB-02, YLB-03) and prepared three kinds of dosage form, analyzed by transdermal experiments and high-performance liquid phase (HPLC) content analysis. Three dosage forms (liniments, gels and ointments) of […] were prepared in different concentrations (0.03%, 0.3% and 3%). Then, different proportional of transdermal promoters was added to perform transdermal experiments. The transdermal effects of three kinds of YLB-01 formulation were evaluated by the modified Franz diffusion pool. Cumulative transmittance of liniments, gels and ointments in 0.3% concentration of YLB-01 for 9 hours was measured respectively. Results: (1) The best transdermal promoter ratio of liniments, gels and ointments were 2% propylene glycol+2% azone, 4% propylene glycol, and 5% propylene glycol+2% azone. (2) 9 hours of cumulative transmittance of 0.03%, 0.3%, 3% liniments were 4.23%, 10.96% and 12.17%, respectively; 9 hours of cumulative transmittance of 0.03%, 0.3%, 3% gels were 2.29%, 4.43% and 13.57%, respectively; 9 hours of cumulative transmittance of 0.03%, 0.3%, 3% ointments were 2.08%, 1.12% and 0.73%, respectively. Conclusion: The different contents of […] liniments, gels and ointments are all have some transdermal abilities, and the abilities are: liniments>gels>ointments.
To determine the optimal dosage form of YLB-01 and best transdermal promoter, we plan to use transdermal test combined with HPLC content analysis as screening basis, research on dosage forms and transdermal promoter to achieve a stable and reliable preparation. The samples were analyzed by HPLC on an Agilent TC-C18 column (150 mm×4.6 mm, 5 microns). The mobile phases were methanol and 0.02 mol/L potassium dihydrogen phosphate buffer (66:34, pH was adjusted to 4 with phosphoric acid). Flow rate: 1 ml/min; Column temperature: 30° C. Excitation wavelength and fluorescent wavelength of fluorescence detection were 267 nm and 380 nm, respectively. Under this condition, YLB-01 retention time was 3.898 min, target compounds peak shape is good which could be effectively separated, and no impurity peak, baseline is smooth (shown as FIG. 6).
The abdominal hair of mice was removed. The mice were sacrificed by spinal dislocation. The subcutaneous fat was removed, and the depilous skin of abdomen was reserved in 4° C. physiological saline. Skin was fixed between the supply room and reception room facing the supply room. The effective permeability area was 4 cm^2. Receiving liquid was physiological saline, and receiving chamber volume V were 25 ml. 1.0 g of the tested sample was coated evenly on the effective skin surface with the electromagnetic stirrer run at a speed of 300 r/min. To take out the receiving liquid in 1, 2, 3, 4, 5, 6, 7, 8, 9 h, 0.5 ml/h (Complementing the same quantity each time), the samples were centrifuged and the supernatant was took for HPLC analysis.
After the detection, the cumulative transmittance P (%) was calculated:
V: the volume of receiving liquid in receiving room; Ci: drug concentration in receiving liquid between the time to last time of the i time; Cn: drug concentration in the receiving liquid when the n time taking the sample; M: drug content in the sample.

## CNC(=O)c1ccc(CCC(=O)NCC(=O)N(C)c2ccc(Cl)c(COc3cccc4c3nc(OC)n4Cc3ccccn3)c2Cl)cc1 [YLB-01, 4-(3-2-((2,4-dichloro-3-((2-methoxy-1-(pyridine-2ylmethyl)-1H-benzo[d]imidazol-4-yloxy)methyl)phenyl)(methyl)amino-2-oxoethylamino)-3-oxopropyl)-N-methylbenzamid]
BK B2 receptor; 0.1 nM
  activation at 0.0001 µM: 0%
BK B2 receptor; 1 nM
  activation at 0.001 µM: 7.69 ± 2.19%
BK B2 receptor; 10 nM
  activation at 0.01 µM: ~50%
BK B2 receptor; 30 nM
  activation at 0.03 µM: 53.7 ± 4.56%
BK B2 receptor; 100 nM
  activation at 0.1 µM: 73.4 ± 2.7%
BK B2 receptor; 300 nM
  activation at 0.3 µM: 83.8 ± 6.45%
BK B2 receptor; 1 μM
  activation at 1 µM: 87 ± 3.76%
BK B2 receptor; 3 μM
  activation at 3 µM: 87.8 ± 4.2%
BK B2 receptor; 10 μM
  activation at 10 µM: 86.5 ± 7.44%
B2 receptor; agonist 0.1 nM + HOE-140 1 μM
  Relative PG Secretion Amount with 1 μM HOE-140: 1.54 ± 2.53%
B2 receptor; agonist 1 nM + HOE-140 1 μM
  Relative PG Secretion Amount with 1 μM HOE-140: 4.21 ± 3.74%
B2 receptor; agonist 10 nM + HOE-140 1 μM
  Relative PG Secretion Amount with 1 μM HOE-140: 4.17 ± 3.21%
B2 receptor; agonist 30 nM + HOE-140 1 μM
  Relative PG Secretion Amount with 1 μM HOE-140: 2.86 ± 2.35%
B2 receptor; agonist 100 nM + HOE-140 1 μM
  Relative PG Secretion Amount with 1 μM HOE-140: 3.44 ± 3.77%
B2 receptor; agonist 300 nM + HOE-140 1 μM
  Relative PG Secretion Amount with 1 μM HOE-140: 0.45 ± 2.86%
B2 receptor; agonist 1 μM + HOE-140 1 μM
  Relative PG Secretion Amount with 1 μM HOE-140: 3.66 ± 2.11%
B2 receptor; agonist 3 μM + HOE-140 1 μM
  Relative PG Secretion Amount with 1 μM HOE-140: 6.98 ± 1.6%
B2 receptor; agonist 10 μM + HOE-140 1 μM
  Relative PG Secretion Amount with 1 μM HOE-140: 40.32 ± 3.27%
[1]
  PGD2: undetectable
  PGE2: 34.64 ± 12.27%
  PGF-2a: 5.68 ± 2.08%
[2]; gels, 0.03% YLB-01, 4% propylene glycol, 0% azone
  Cumulative Penetration Rate of 9 Hours: 2.29%
[2]; gels, 0.3% YLB-01, 4% propylene glycol, 0% azone
  Cumulative Penetration Rate of 9 Hours: 4.43%
[2]; gels, 3% YLB-01, 4% propylene glycol, 0% azone
  Cumulative Penetration Rate of 9 Hours: 13.57%
[2]; liniments, 0.03% YLB-01, 2% propylene glycol + 2% azone
  Cumulative Penetration Rate of 9 Hours: 4.23%
[2]; liniments, 0.3% YLB-01, 2% propylene glycol + 2% azone
  Cumulative Penetration Rate of 9 Hours: 10.96%
[2]; liniments, 3% YLB-01, 2% propylene glycol + 2% azone
  Cumulative Penetration Rate of 9 Hours: 12.17%
[2]; ointments, 0.03% YLB-01, 5% propylene glycol + 2% azone
  Cumulative Penetration Rate of 9 Hours: 2.08%
[2]; ointments, 0.3% YLB-01, 5% propylene glycol + 2% azone
  Cumulative Penetration Rate of 9 Hours: 1.12%
[2]; ointments, 3% YLB-01, 5% propylene glycol + 2% azone
  Cumulative Penetration Rate of 9 Hours: 0.73%

— patent publication US20160220464A1 (WUHAN OPTICS VALLEY BRIDGEBIOMED INTERNATIONAL CORPORATION, priority 2013, published 2016)
